From US12378178B2, “Oleic acid derivatives as treatments for Friedreich ataxia and inhibitors of ferroptosis” (THE TRUSTEES OF THE UNIVERSITY OF PENNSYLVANIA, priority 2019, dated 2025)
pEC50: −log10 of the molar value. Entries after “also recorded” stand apart in the source; their conditions may differ.

Experiments:
[1] = system: mouse fibroblast I154F cell lines; assay: Rescue of viability of murine I154F fibroblasts treated with FAC+BSO; settings: for Relative to Oleic Acid: 1 = oleic acid, 0.5 = no rescue; for activity in FAC+BSO assay: following FAC+BSO treatment, concentration not given
[2] = system: human FRDA fibroblast line GM4078; assay: Survival of human FRDA fibroblast line GM4078 treated with FAC and BSO; format: cell-based; settings: for Relative to Oleic Acid (change in survival compared to cells treated with 40 μM oleic acid) / toxicity / activity in dose response: FAC and BSO; for toxicity: compound 40 μM; for activity in dose response: lower concentrations down to 5 μM; for activity: trifluoromethyl ketone and alcohol analogs
Method: To test the efficacy of the above compounds, they were tested at least at two different concentrations using human FRDA fibroblast line GM4078 treated with FAC and BSO and the change in survival compared to cells treated with 40 μM oleic acid was measured Table 2 has the results of the compounds tested at 40 μM.

PGC1-α = PGC1-α expression in human FRDA fibroblasts GM3816; format: cell-based; settings: compound 16 μM; after 96 h
Method: Oleic acid, as well as other fatty acids of different length and degree of saturation, binds and activates the peroxisome proliferator-activated receptor gamma (PPAR-γ), a key regulator of glucose and lipid metabolism, which up-regulates PGC1-α, among other targets. Pioglitazone, a PPAR-γ agonist is a thiazolidinedione used to treat type-2 diabetes. […] Human FRDA fibroblasts GM3816 were treated with 10 μM pioglitazone and increased PGC1-α expression was measured starting at 48 h. The expression doubled at 96 h, a time frame sufficient for PGC1-α to have an effect in a typical FAC+BSO experiment, whereas 16 μM oleic acid increased PGC1-α expression only 1.4 fold after 96 h.

[3] = system: murine fibroblast I154F cells; assay: Rescue from erastin-induced ferroptosis, murine I154F fibroblast model; format: cell-based; settings: 5 μM erastin for 48 h (erastin alone 44%)
[4] = system: human FRDA fibroblasts 3816; assay: Rescue of human FRDA fibroblasts 3816 treated with erastin; format: cell-based; settings: for survival: 10 μM erastin for 24 h (85% cell death)
[5] = system: human FRDA fibroblasts 3816; assay: as above; format: cell-based; settings: erastin 5 μM; for survival: 48 h (erastin alone 32%)
Method: Addition of O[…] at 5 μM was sufficient to increase survival to 50% (1.5 fold) and at 10 μM and 20 μM survival went up to 80 and 84% (2.5 and 2.6 fold) respectively (FIG. 2B).

lipoxygenases (Lox) = assay: In vitro lipoxygenase activity assay; format: biochemical; settings: compound at 1 nM and 10 nM; solubility problems precluded higher concentrations
Method: Oleic acid has been reported to inhibit soybean lipoxygenase, as well as human 15-lipoxygenase, by binding an allosteric site. […] Whether O[…] was inhibiting lipoxygenase activity was tested using an in vitro assay.

[6] = system: immortalized myoblast cell line transfected with a frataxin siRNA; assay: Lipid peroxidation in immortalized myoblast cell line with frataxin siRNA knock-down; format: cell-based; settings: compound 5 μM every 48 h post transfection
Method: Knocking-down frataxin in human fibroblasts results in increased lipid peroxidation, which could be easily measured when the cells were also treated with the ferroptosis inducer RSL-3. To test whether OA200R would be efficacious in the knock-down system, an immortalized myoblast cell line was transfected with a frataxin siRNA or a scrambled siRNA control. A 65% protein loss was achieved over 4 days and a statistically significant increase of lipid peroxidation (1.4 fold) compared to the cells transfected with a scrambled control.

[7] = system: murine fibroblast I154F cells; assay: Lipid peroxidation in murine fibroblast I154F cells; format: cell-based
Method: The basal level of lipid peroxides was tested in the murine fibroblast I154F cells compared to the parental line 2F1 and a detectable higher level of lipid peroxides was found in the cells containing a missense frataxin (FIG. 3A).

[8] = system: immortalized human fibroblasts 3665-T cells; assay: Survival of immortalized human fibroblasts 3665-T treated with FAC and BSO; format: cell-based; settings: for survival: FAC and BSO (95% cell death)
Text: Stereospecific activity of the two enantiomers was confirmed using the immortalized human fibroblasts 3665-T cells, a more severe model of FRDA. […] (FIG. 2A).

[9] = system: healthy human fibroblasts with frataxin knockdown; settings: earlier work referred to in the text; cited from earlier work

## Heptadecenoic acid
[1]; 20 μM
  Relative to Oleic Acid: 0.7 ± 0.05
[1]; tested at 40 μM, <0.5 toxic
  Relative to Oleic Acid: 0.83 ± 0.05

## CCCCCCCCCC/C=C\CCCCCCCC(=O)O [Gadoleic acid]
[1]; compound 40 μM
  efficacy in FAC+BSO assay: comparable to oleic acid
[1]; tested at 40 μM, <0.5 toxic
  Relative to Oleic Acid: 0.77 ± 0.16

## CCCCCCCC/C=C/CCCCCCCC(=O)O [Elaidic Acid]
[1]; compound 40 μM
  efficacy in FAC+BSO assay: slightly toxic
[1]; compound 160 μM
  efficacy in FAC+BSO assay: somehow effective
[1]; tested at 40 μM, <0.5 toxic
  Relative to Oleic Acid: 0.30 ± 0.08

## CCCCCC/C=C\CCCCCCCCC(=O)C(F)(F)F [HA-210]
[2]; tested at 40 μM
  Relative to Oleic Acid (change in survival compared to cells treated with 40 μM oleic acid): 0.35 ± 0.02

## CCCCCC/C=C\CCCCCCCCCC(=O)O [Cis-Vaccenic Acid]
[1]; compound 40 μM
  efficacy in FAC+BSO assay: comparable to oleic acid
[1]; tested at 40 μM, <0.5 toxic
  Relative to Oleic Acid: 1.00 ± 0.08

## CCCCCC/C=C\CCCCCCCC(=O)O [Palmitoleic Acid]
[1]; 20 μM
  Relative to Oleic Acid: 0.73 ± 0.04
[1]; compound 40 μM
  efficacy in FAC+BSO assay: comparable to oleic acid
[1]; tested at 40 μM, <0.5 toxic
  Relative to Oleic Acid: 0.77 ± 0.03

## CCCCCCCC/C=C\CCCCCCCC(=O)OC [Oleic Acid OMe]
[1]; tested at 40 μM, <0.5 toxic
  Relative to Oleic Acid: 0.95 ± 0.12

## CCCCC/C=C\C/C=C\C/C=C\CCCCC(=O)O [γ-linolenic Acid]
[1]
  activity in FAC+BSO assay: increased cell death
[1]; tested at 40 μM, <0.5 toxic
  Relative to Oleic Acid: 0.16 ± 0.02

## CCCCC/C=C\C/C=C\CCCCCCCC(=O)O [linoleic acid]
[1]; compound 16 μM, FAC+BSO (alone 40% of control cells)
  cell viability: 30 % of control cells

## CCCCCCCC/C=C\CCCCCCCC(=O)OCC [Oleic Acid OEt]
[1]; tested at 40 μM, <0.5 toxic
  Relative to Oleic Acid: 0.77 ± 0.18

## CCCCCCCCC1OC2(CCCCC2)OC1CCCCCCCC(=O)O (stereo not shown) [OA-95]
[2]; tested at 40 μM
  Relative to Oleic Acid (change in survival compared to cells treated with 40 μM oleic acid): 0.24 ± 0.04

## CCCCCCCCCCC/C=C\CCCCC(=O)O [Petrosenilic Acid]
[1]; compound 40 μM
  efficacy in FAC+BSO assay: comparable to oleic acid
[1]; tested at 40 μM, <0.5 toxic
  Relative to Oleic Acid: 0.74 ± 0.04

## CCCCCCCC/C=C\CCCCCCCCCCCC(=O)O [Erucic add]
[1]; compound 40 μM
  efficacy in FAC+BSO assay: comparable to oleic acid
[1]; tested at 40 μM, <0.5 toxic
  Relative to Oleic Acid: 0.93 ± 0.07

## CCCCCCCC/C=C\CCCCCCCC(N)=O [Oleic Acid NH2]
[1]; tested at 40 μM, <0.5 toxic
  Relative to Oleic Acid: 0.79 ± 0.13

## CCCCCCCC/C=C\CCCCCCCC(=O)C(F)(F)F [OA-210, (Z)-1,1,1-trifluorononadec-10-en-2-one]
[2]; 10 μM printed beside the value
  Relative to Oleic Acid (change in survival compared to cells treated with 40 μM oleic acid): 0.52 ± 0.13
[2]
  toxicity: slightly toxic
  activity in dose response: active

## CCCCCCCC/C=C\CCCCCCCC(=O)O [Oleic Acid]
PGC1-α
  increase of PGC1-α expression: 1.4 fold
[1]; compound 16 μM, FAC+BSO
  effect on cell survival: doubled cell survival
[1]; compound 40 μM
  efficacy in FAC+BSO assay: doubled survival
[1]; read-out: EC50 in the FAC+BSO in mouse fibroblasts assay, FAC+BSO
  pEC50: 4.64
[1]; tested at 40 μM, <0.5 toxic
  Relative to Oleic Acid: 1.03 ± 0.04
[3]; compound 5 μM
  cell survival: 49%
[3]; compound 10 μM
  cell survival: 55%
[3]; compound 20 μM
  cell survival: 65%
[4]; compound 40 μM, 10 μM erastin for 24 h
  rescue of cell viability: did not rescue cell viability
[5]; compound 20 μM, 48 h
  increase of survival: 1.5 fold

## CCCCCCCCC1OC(C)(C)OC1CCCCCCCC(=O)O (stereo not shown) [OA-90]
[2]; tested at 40 μM
  Relative to Oleic Acid (change in survival compared to cells treated with 40 μM oleic acid): 0.05 ± 0.02

## CCCCCCCC/C=C\CCCCCCC[C@@H](O)C(F)(F)F [OA200R, (R,Z)-1,1,1-trifluorononadec-10-en-2-ol]
Lipoxygenases (Lox)
  Lox enzymatic activity: did not affect Lox enzymatic activity; also recorded: does not inhibit
[6]
  decreased lipid peroxidation: 20%
[7]
  concentration at which reduction of lipid peroxidation reached statistical significance: 5 µM
[7]; basal lipid peroxides
  lipid peroxidation: reduced lipid peroxidation in a dose-dependent manner
[2]; rescue of cell viability, assay not given
  potency of (R)-enantiomer relative to (S)-enantiomer: seven-fold
[2]; assay not given
  activity: activity resides in the (R) enantiomer
[8]; compound 10 μM
  survival: 25%
[8]; compound 20 μM
  survival: 77%
[8]; compound 40 μM
  survival: 95%
[4]; compound 5 μM
  survival: 48%
[4]; compound 10 μM
  survival: 87%
[4]; compound 20 μM
  survival: 88%
[5]; compound 5 μM, 48 h
  increase of survival: 1.5 fold
[5]; compound 5 μM
  survival: 50%
[5]; compound 10 μM, 48 h
  increase of survival: 2.5 fold
[5]; compound 10 μM
  survival: 80%
[5]; compound 20 μM, 48 h
  increase of survival: 2.6 fold
[5]; compound 20 μM
  survival: 84%

## CCCCCCCCCC(=O)O [Capric Acid]
[1]
  activity in FAC+BSO assay: inactive
[1]; tested at 40 μM, <0.5 toxic
  Relative to Oleic Acid: 0.49 ± 0.09

## CCCCCCCCC=CCCCCCCCC(=O)NO [OA310]
[1]; 10 μM
  Relative to Oleic Acid: 1.04 ± 0.04

## CCCCCCCC/C=C\CCCCCCC[C@H](O)C(F)(F)F [S-isomer, (S,Z)-1,1,1-trifluorononadec-10-en-2-ol]
[2]; assay not given
  activity: inactive
[8]; compound 5 μM, FAC and BSO
  efficacy: inefficacious
[8]; compound 20 μM
  survival: 10%
[8]; compound 40 μM
  survival: 22%
[4]; any concentration, 10 μM erastin for 24 h
  activity: inactive
[5]; compound between 20 and 5 μM, 48 h
  activity: no activity

## CCOC(=O)c1ccc(NC2CCCCC2)c(NCc2ccccc2)c1 [SRS11-92]
[9]
  cell death associated with frataxin knockdown: decreased the cell death

## CCCCCCCCC1OC1CCCCCCCC(=O)O (stereo not shown) [OA-50]
[2]; tested at 40 μM
  Relative to Oleic Acid (change in survival compared to cells treated with 40 μM oleic acid): 0.15 ± 0.02

## CCCCCCCCCCCCCCCCCC(=O)O [Stearic Acid]
[1]; compound 16 μM, FAC+BSO
  effect on cell survival: no effect
[1]; tested at 40 μM, <0.5 toxic
  Relative to Oleic Acid: 0.50 ± 0.06

## CCCCCCCCCCCC(=O)O [Lauric Acid]
[1]
  activity in FAC+BSO assay: inactive
[1]; tested at 40 μM, <0.5 toxic
  Relative to Oleic Acid: 0.47 ± 0.12

## CCCCCC/C=C\CCCCCCCCC(O)C(F)(F)F (racemic) [[rac]-HA-200]
[2]; tested at 40 μM
  Relative to Oleic Acid (change in survival compared to cells treated with 40 μM oleic acid): 0.56 ± 0.03

## CCCCCCCCCCCCCCCC(=O)O [Palmitic Acid]
[1]; tested at 40 μM, <0.5 toxic
  Relative to Oleic Acid: 0.18 ± 0.07

## CCCCCCCC/C=C\CCCCCCCC(O)C(F)(F)F (racemic) [[rac]-OA-200, (Z)-1,1,1-trifluorononadec-10-en-2-ol]
[2]; 10 μM printed beside the value
  Relative to Oleic Acid (change in survival compared to cells treated with 40 μM oleic acid): 0.67 ± 0.17
[2]; cells treated with FAC and BSO, or with erastin
  potency in rescuing cell viability compared with oleic acid: significantly more potent than oleic acid
[2]
  toxicity: slightly toxic
  activity in dose response: active

## CCCCCCCCC(O)C(O)CCCCCCCC(=O)O (stereo not shown) [OA-81]
[2]; tested at 40 μM
  Relative to Oleic Acid (change in survival compared to cells treated with 40 μM oleic acid): 0.14 ± 0.03

## CCCCCCCCCCCCCC(=O)O [Myristic Acid]
[1]; tested at 40 μM, <0.5 toxic
  Relative to Oleic Acid: 0.11 ± 0.02
